Laboratory results as given in patent publication EP0198522A1, “Heterocyclic herbicides” (SHELL INTERNATIONALE RESEARCH MAATSCHAPPIJ B.V., priority 1985, dated 1986).

Columns and labels:
Format in all cases: in vivo
maize, Zea mays [1] = experiment: Herbicidal activity, pre-emergence test (soil spray); conditions: assessed visually twelve days after spraying, 0-9 scale, 0 = growth as untreated control, 9 = death
Experimental: (§1) To evaluate their herbicidal activity, compounds according to the invention were tested using as representative range of plants: maize, Zea mays (Mz); rice, Oryza sativa (R); barnyard grass, Echinochloa crusgalli (BG); oat, Avena sativa (0); linseed, Linum usitatissisum (L); mustard, Sinapsis alba (M); sugar beet, Beta vulgaris (SB) and soya bean, Glycine max (S).
(§2) The tests fall into two categories, pre-emergence and post-emergence. […] The post-emergence tests involved two types of test, viz., soil drench and foliar spray tests. In the soil drench tests the soil in which the seedling plants of the above species were growing was drenched with a liquid formulation containing a compound of the invention, and in the foliar spray tests the seedling plants were sprayed with such a formulation.
(§3) The soil used in the tests was a prepared horticultural loam.
(§4) These acetone solutions were diluted with water and the resulting formulations applied at dosage levels corresponding to 5 kg or 1 kg of active material per hectare in a volume equivalent to 600 litres per hectare in the soil spray and foliar spray test, and at a dosage of level equivalent to 10 kilograms of active material per hectare in a volume equivalent to approximately 3,000 litres per hectare in the soil drench tests.
(§5) In the pre-emexgence tests untreated sown soil and in the post-emergence tests untreated soil bearing seedling plants were used as controls.
(§6) The herbicidal effects of the test compounds were assessed visually twelve days after spraying the foliage and the soil, and thirteen days after drenching the soil and were recorded on a 0-9 scale. A rating 0 indicates growth as untreated control, a rating 9 indicates death. An increase of 1 unit on the linear scale approximates to a 10% increase in the level of effect.

oat, Avena sativa [2] = experiment: as above; conditions: assessed visually twelve days after spraying, 0-9 scale, 0 = growth as untreated control, 9 = death
Experimental: as §1, §2, §3, §4, §5, §6

rice, Oryza sativa [3] = experiment: as above; conditions: assessed visually twelve days after spraying, 0-9 scale, 0 = growth as untreated control, 9 = death
Experimental: as §1, §2, §3, §4, §5, §6

soya bean, Glycine max [4] = experiment: as above; conditions: assessed visually twelve days after spraying, 0-9 scale, 0 = growth as untreated control, 9 = death
Experimental: as §1, §2, §3, §4, §5, §6

[5] = test system: sugar beet, Beta vulgaris; experiment: as above; conditions: assessed visually twelve days after spraying, 0-9 scale, 0 = growth as untreated control, 9 = death
Experimental: as §1, §2, §3, §4, §5, §6

mustard, Sinapsis alba [6] = experiment: as above; conditions: assessed visually twelve days after spraying, 0-9 scale, 0 = growth as untreated control, 9 = death
Experimental: as §1, §2, §3, §4, §5, §6

[7] = test system: linseed, Linum usitatissisum; experiment: as above; conditions: assessed visually twelve days after spraying, 0-9 scale, 0 = growth as untreated control, 9 = death
Experimental: as §1, §2, §3, §4, §5, §6

[8] = test system: barnyard grass, Echinochloa crusgalli; experiment: as above; conditions: assessed visually twelve days after spraying, 0-9 scale, 0 = growth as untreated control, 9 = death
Experimental: as §1, §2, §3, §4, §5, §6

maize, Zea mays [9] = experiment: Herbicidal activity, post-emergence soil drench test; conditions: 10 kg/ha soil drench; assessed visually thirteen days after drenching; 0-9 scale, 0 = growth as untreated control, 9 = death
Experimental: as §1, §2, §3, §4, §5, §6

oat, Avena sativa [10] = experiment: as above; conditions: 10 kg/ha soil drench; assessed visually thirteen days after drenching; 0-9 scale, 0 = growth as untreated control, 9 = death
Experimental: as §1, §2, §3, §4, §5, §6

rice, Oryza sativa [11] = experiment: as above; conditions: 10 kg/ha soil drench; assessed visually thirteen days after drenching; 0-9 scale, 0 = growth as untreated control, 9 = death
Experimental: as §1, §2, §3, §4, §5, §6

soya bean, Glycine max [12] = experiment: as above; conditions: 10 kg/ha soil drench; assessed visually thirteen days after drenching; 0-9 scale, 0 = growth as untreated control, 9 = death
Experimental: as §1, §2, §3, §4, §5, §6

[13] = test system: sugar beet, Beta vulgaris; experiment: as above; conditions: 10 kg/ha soil drench; assessed visually thirteen days after drenching; 0-9 scale, 0 = growth as untreated control, 9 = death
Experimental: as §1, §2, §3, §4, §5, §6

mustard, Sinapsis alba [14] = experiment: as above; conditions: 10 kg/ha soil drench; assessed visually thirteen days after drenching; 0-9 scale, 0 = growth as untreated control, 9 = death
Experimental: as §1, §2, §3, §4, §5, §6

[15] = test system: linseed, Linum usitatissisum; experiment: as above; conditions: 10 kg/ha soil drench; assessed visually thirteen days after drenching; 0-9 scale, 0 = growth as untreated control, 9 = death
Experimental: as §1, §2, §3, §4, §5, §6

[16] = test system: barnyard grass, Echinochloa crusgalli; experiment: as above; conditions: 10 kg/ha soil drench; assessed visually thirteen days after drenching; 0-9 scale, 0 = growth as untreated control, 9 = death
Experimental: as §1, §2, §3, §4, §5, §6

maize, Zea mays [17] = experiment: Herbicidal activity, post-emergence foliar spray test; conditions: assessed visually twelve days after spraying, 0-9 scale, 0 = growth as untreated control, 9 = death
Experimental: as §1, §2, §3, §4, §5, §6

oat, Avena sativa [18] = experiment: as above; conditions: assessed visually twelve days after spraying, 0-9 scale, 0 = growth as untreated control, 9 = death
Experimental: as §1, §2, §3, §4, §5, §6

rice, Oryza sativa [19] = experiment: as above; conditions: assessed visually twelve days after spraying, 0-9 scale, 0 = growth as untreated control, 9 = death
Experimental: as §1, §2, §3, §4, §5, §6

soya bean, Glycine max [20] = experiment: as above; conditions: assessed visually twelve days after spraying, 0-9 scale, 0 = growth as untreated control, 9 = death
Experimental: as §1, §2, §3, §4, §5, §6

[21] = test system: sugar beet, Beta vulgaris; experiment: as above; conditions: assessed visually twelve days after spraying, 0-9 scale, 0 = growth as untreated control, 9 = death
Experimental: as §1, §2, §3, §4, §5, §6

mustard, Sinapsis alba [22] = experiment: as above; conditions: assessed visually twelve days after spraying, 0-9 scale, 0 = growth as untreated control, 9 = death
Experimental: as §1, §2, §3, §4, §5, §6

[23] = test system: linseed, Linum usitatissisum; experiment: as above; conditions: assessed visually twelve days after spraying, 0-9 scale, 0 = growth as untreated control, 9 = death
Experimental: as §1, §2, §3, §4, §5, §6

[24] = test system: barnyard grass, Echinochloa crusgalli; experiment: as above; conditions: assessed visually twelve days after spraying, 0-9 scale, 0 = growth as untreated control, 9 = death
Experimental: as §1, §2, §3, §4, §5, §6

## CC(C)C1(C)NC(c2nc3cc4c(cc3cc2C(=O)O)OCO4)=NC1=O (stereo not shown) [Example 2, 2-(5-methyl-5-isopropyl-4-oxo-2-imidazolin-2-yl)-[1,3]-dioxolo[4,5-g] quinoline-3-carboxylic acid]
maize, Zea mays [1]; Dosage 1 kg/ha
  Pre-emergence Mz (herbicidal effect rating): 8
maize, Zea mays [1]; Dosage 5 kg/ha
  Pre-emergence Mz (herbicidal effect rating): 8
oat, Avena sativa [2]; Dosage 1 kg/ha
  Pre-emergence O (herbicidal effect rating): 7
oat, Avena sativa [2]; Dosage 5 kg/ha
  Pre-emergence O (herbicidal effect rating): 7
rice, Oryza sativa [3]; Dosage 1 kg/ha
  Pre-emergence R (herbicidal effect rating): 9
rice, Oryza sativa [3]; Dosage 5 kg/ha
  Pre-emergence R (herbicidal effect rating): 9
Soya bean, Glycine max [4]; Dosage 1 kg/ha
  Pre-emergence S (herbicidal effect rating): 8
Soya bean, Glycine max [4]; Dosage 5 kg/ha
  Pre-emergence S (herbicidal effect rating): 8
[5]; Dosage 1 kg/ha
  Pre-emergence SB (herbicidal effect rating): 8
[5]; Dosage 5 kg/ha
  Pre-emergence SB (herbicidal effect rating): 8
mustard, Sinapsis alba [6]; Dosage 1 kg/ha
  Pre-emergence M (herbicidal effect rating): 7
mustard, Sinapsis alba [6]; Dosage 5 kg/ha
  Pre-emergence M (herbicidal effect rating): 7
[7]; Dosage 1 kg/ha
  Pre-emergence L (herbicidal effect rating): 8
[7]; Dosage 5 kg/ha
  Pre-emergence L (herbicidal effect rating): 9
[8]; Dosage 1 kg/ha
  Pre-emergence BG (herbicidal effect rating): 8
[8]; Dosage 5 kg/ha
  Pre-emergence BG (herbicidal effect rating): 8
maize, Zea mays [9]
  Soil drench 10/kg/ha Mz (herbicidal effect rating): 7
oat, Avena sativa [10]
  Soil drench 10/kg/ha O (herbicidal effect rating): 7
rice, Oryza sativa [11]
  Soil drench 10/kg/ha R (herbicidal effect rating): 7
Soya bean, Glycine max [12]
  Soil drench 10/kg/ha S (herbicidal effect rating): 6
[13]
  Soil drench 10/kg/ha SB (herbicidal effect rating): 8
mustard, Sinapsis alba [14]
  Soil drench 10/kg/ha M (herbicidal effect rating): 9
[15]
  Soil drench 10/kg/ha L (herbicidal effect rating): 7
[16]
  Soil drench 10/kg/ha BG (herbicidal effect rating): 9
maize, Zea mays [17]; Dosage 1 kg/ha
  Foliar spray Mz (herbicidal effect rating): 6
maize, Zea mays [17]; Dosage 5 kg/ha
  Foliar spray Mz (herbicidal effect rating): 7
oat, Avena sativa [18]; Dosage 1 kg/ha
  Foliar spray O (herbicidal effect rating): 6
oat, Avena sativa [18]; Dosage 5 kg/ha
  Foliar spray O (herbicidal effect rating): 7
rice, Oryza sativa [19]; Dosage 1 kg/ha
  Foliar spray R (herbicidal effect rating): 6
rice, Oryza sativa [19]; Dosage 5 kg/ha
  Foliar spray R (herbicidal effect rating): 6
Soya bean, Glycine max [20]; Dosage 1 kg/ha
  Foliar spray S (herbicidal effect rating): 2
Soya bean, Glycine max [20]; Dosage 5 kg/ha
  Foliar spray S (herbicidal effect rating): 4
[21]; Dosage 1 kg/ha
  Foliar spray SB (herbicidal effect rating): 7
[21]; Dosage 5 kg/ha
  Foliar spray SB (herbicidal effect rating): 7
mustard, Sinapsis alba [22]; Dosage 1 kg/ha
  Foliar spray M (herbicidal effect rating): 7
mustard, Sinapsis alba [22]; Dosage 5 kg/ha
  Foliar spray M (herbicidal effect rating): 7
[23]; Dosage 1 kg/ha
  Foliar spray L (herbicidal effect rating): 6
[23]; Dosage 5 kg/ha
  Foliar spray L (herbicidal effect rating): 6
[24]; Dosage 1 kg/ha
  Foliar spray BG (herbicidal effect rating): 7
[24]; Dosage 5 kg/ha
  Foliar spray BG (herbicidal effect rating): 7
